# Results published in US8829034B2, “Compounds which modulate the CB2 receptor” (Boehringer Ingerlheim International GmbH, priority 2006, dated 2014).
# Read-outs that look alike come from different tables or passages of the source.
# Biological target: T1, human CB2R (Homo sapiens, UniProt P34972)
# T1 construct: host or cells: CHO cells
# Test: CB2R mediated modulation of cAMP synthesis
# Assay type: cell-based
# Settings: for agonistic activity: found through the use of the above described assays
# Description: B. CB2R Mediated Modulation of cAMP Synthesis:
# CHO cells expressing human CB2R (Euroscreen) were plated at a density of 5000 cells per well in 384 well plates and incubated overnight at 37° C. After removing the media, the cells were treated with test compounds diluted in stimulation buffer containing 1 mM IBMX, 0.25% BSA and 10 uM Forskolin. The assay was incubated for 30 minutes at 37° C. Cells were lysed and the cAMP concentration was measured using DiscoverX-XS cAMP kit, following the manufacturer's protocol. In this setting, agonists will decrease forskolin induced production of cAMP while inverse agonists will further increase forskolin induced production of cAMP. EC50 of agonists were calculated as follows. The maximal amount of cAMP produced by forskolin compared to the level of cAMP inhibited by 1 uM CP55940 is defined as 100%. The EC50 value of each test compound was determined as the concentration at which 50% of the forskolin-stimulated cAMP synthesis was inhibited. Data was analyzed using a four-parameter logistic model. (Model 205 of XLfit 4.0).
# T1 sequence (P34972 whole entry): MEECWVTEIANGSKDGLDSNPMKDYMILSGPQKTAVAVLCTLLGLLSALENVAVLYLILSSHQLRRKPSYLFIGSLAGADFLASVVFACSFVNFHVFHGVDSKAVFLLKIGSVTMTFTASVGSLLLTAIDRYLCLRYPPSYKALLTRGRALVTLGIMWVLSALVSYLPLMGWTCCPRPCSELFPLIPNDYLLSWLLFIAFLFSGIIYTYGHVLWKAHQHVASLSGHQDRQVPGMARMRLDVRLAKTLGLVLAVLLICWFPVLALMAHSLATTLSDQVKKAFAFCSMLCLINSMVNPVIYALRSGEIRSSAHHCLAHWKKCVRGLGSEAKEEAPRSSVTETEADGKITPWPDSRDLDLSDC
Structure (SMILES),agonistic activity,EC50 [nM],"EC50 (CHO cells expressing human CB2R, inhibition of forskolin-stimulated cAMP synthesis, compounds having agonist activity, read-out: CB2 EC50) [nM]"
CC(C)(C(=O)Nc1cccc2ccccc12)S(=O)(=O)CC1CCOCC1 [2-Methyl-N-naphthalen-1-yl-2-(tetrahydro-pyran-4-ylmethanesulfonyl)-propionamide],agonistic activity,–,–
CC(C)S(=O)(=O)C(C)(C)C(=O)Nc1ccc2ccccc2c1 [2-Methyl-N-naphthalen-2-yl-2-(propane-2-sulfonyl)-propionamide],agonistic activity,–,–
CC(C)(C(=O)Nc1ccc2ccccc2n1)S(=O)(=O)CC1CCOCC1 [2-Methyl-N-quinolin-2-yl-2-(tetrahydro-pyran-4-ylmethanesulfonyl)-propionamide],agonistic activity,5.8,–
CC(C)(C(=O)Nc1cnc2ccccc2c1)S(=O)(=O)CC1CCOCC1 [2-Methyl-N-quinolin-3-yl-2-(tetrahydro-pyran-4-ylmethanesulfonyl)-propionamide],agonistic activity,86,–
"CCCS(=O)(=O)C(C)(C)C(=O)Nc1c(C)c(-c2ccccc2)nn1C [N-(2,4-Dimethyl-5-phenyl-2H-pyrazol-3-yl)-2-methyl-2-(propane-1-sulfonyl)-propionamide]",agonistic activity,–,–
"Cc1c(-c2ccccc2)nn(C)c1NC(=O)C(C)(C)S(=O)(=O)CC1CCOCC1 [N-(2,4-Dimethyl-5-phenyl-2H-pyrazol-3-yl)-2-methyl-2-(tetrahydro-pyran-4-ylmethanesulfonyl)-propionamide]",agonistic activity,–,–
CC(C)c1cc(NC(=O)C(C)(C)S(=O)(=O)CC2CCOCC2)on1 [N-(3-Isopropyl-isoxazol-5-yl)-2-methyl-2-(tetrahydro-pyran-4-ylmethanesulfonyl)-propionamide],agonistic activity,–,–
CCC(C)c1cc(NC(=O)C(C)(C)S(=O)(=O)CC2CCOCC2)on1 (centres unmarked) [N-(3-sec-Butyl-isoxazol-5-yl)-2-methyl-2-(tetrahydro-pyran-4-ylmethanesulfonyl)-propionamide],agonistic activity,20,–
CC(C)(C)c1cc(NC(=O)C(C)(C)S(=O)(=O)Cc2ccc(F)cc2)on1 [N-(3-tert-Butyl-isoxazol-5-yl)-2-(4-fluoro-phenylmethanesulfonyl)-2-methyl-propionamide],agonistic activity,17,–
CC(C)(C)c1cc(NC(=O)C(C)(C)S(=O)(=O)CC2CCC2)on1 [N-(3-tert-Butyl-isoxazol-5-yl)-2-cyclobutylmethanesulfonyl-2-methyl-propionamide],agonistic activity,3.7,–
CC(C)(C)c1cc(NC(=O)C(C)(C)S(=O)(=O)C2CCCCC2)on1 [N-(3-tert-Butyl-isoxazol-5-yl)-2-cyclohexanesulfonyl-2-methyl-propionamide],agonistic activity,–,–
CC(C)(C)c1cc(NC(=O)C(C)(C)S(=O)(=O)CC2CCCCC2)on1 [N-(3-tert-Butyl-isoxazol-5-yl)-2-cyclohexylmethanesulfonyl-2-methyl-propionamide],agonistic activity,0.1,–
CC(C)(C)c1cc(NC(=O)C(C)(C)S(=O)(=O)C2CCCC2)on1 [N-(3-tert-Butyl-isoxazol-5-yl)-2-cyclopentanesulfonyl-2-methyl-propionamide],agonistic activity,0.9,–
CC(C)(C)c1cc(NC(=O)C(C)(C)S(=O)(=O)CC2CC2)on1 [N-(3-tert-Butyl-isoxazol-5-yl)-2-cyclopropylmethanesulfonyl-2-methyl-propionamide],agonistic activity,12.5,–
CC(C)CS(=O)(=O)C(C)(C)C(=O)Nc1cc(C(C)(C)C)no1 [N-(3-tert-Butyl-isoxazol-5-yl)-2-methyl-2-(2-methyl-propane-1-sulfonyl)-propionamide],agonistic activity,1.6,–
CC(C)CCS(=O)(=O)C(C)(C)C(=O)Nc1cc(C(C)(C)C)no1 [N-(3-tert-Butyl-isoxazol-5-yl)-2-methyl-2-(3-methyl-butane-1-sulfonyl)-propionamide],agonistic activity,–,0.04
CCCS(=O)(=O)C(C)(C)C(=O)Nc1cc(C(C)(C)C)no1 [N-(3-tert-Butyl-isoxazol-5-yl)-2-methyl-2-(propane-1-sulfonyl)-propionamide],agonistic activity,89.7,–
CC(C)S(=O)(=O)C(C)(C)C(=O)Nc1cc(C(C)(C)C)no1 [N-(3-tert-Butyl-isoxazol-5-yl)-2-methyl-2-(propane-2-sulfonyl)-propionamide],agonistic activity,–,–
CC(C)(C)c1cc(NC(=O)C(C)(C)S(=O)(=O)CC2CCCO2)on1 (centres unmarked) [N-(3-tert-Butyl-isoxazol-5-yl)-2-methyl-2-(tetrahydro-furan-2-ylmethanesulfonyl)-propionamide],agonistic activity,31.5,–

Structure (SMILES),agonistic activity,EC50 [nM],"EC50 (CHO cells expressing human CB2R, inhibition of forskolin-stimulated cAMP synthesis, compounds having agonist activity, read-out: CB2 EC50) [nM]"
CC(C)(C)c1cc(NC(=O)C(C)(C)S(=O)(=O)CC2CCOC2)on1 (centres unmarked) [N-(3-tert-Butyl-isoxazol-5-yl)-2-methyl-2-(tetrahydro-furan-3-ylmethanesulfonyl)-propionamide],agonistic activity,18.5,–
CC(C)(C)c1cc(NC(=O)C(C)(C)S(=O)(=O)CC2CCCCO2)on1 (centres unmarked) [N-(3-tert-Butyl-isoxazol-5-yl)-2-methyl-2-(tetrahydro-pyran-2-ylmethanesulfonyl)-propionamide],agonistic activity,0.2,–
CC(C)(C)c1cc(NC(=O)C(C)(C)S(=O)(=O)C2CCOCC2)on1 [N-(3-tert-Butyl-isoxazol-5-yl)-2-methyl-2-(tetrahydro-pyran-4-sulfonyl)-propionamide],agonistic activity,0.1,–
CC(C)(C)c1cc(NC(=O)C(C)(C)S(=O)(=O)CC2CCOCC2)on1 [N-(3-tert-Butyl-isoxazol-5-yl)-2-methyl-2-(tetrahydro-pyran-4-ylmethanesulfonyl)-propionamide],agonistic activity,4,–
CCCS(=O)(=O)C(C)(C)C(=O)Nc1cccc(C(C)(C)C)c1 [N-(3-tert-Butyl-phenyl)-2-methyl-2-(propane-1-sulfonyl)-propionamide],agonistic activity,–,–
CC(C)S(=O)(=O)C(C)(C)C(=O)Nc1cccc(C(C)(C)C)c1 [N-(3-tert-Butyl-phenyl)-2-methyl-2-(propane-2-sulfonyl)-propionamide],agonistic activity,–,–
CC(C)(C)c1cccc(NC(=O)C(C)(C)S(=O)(=O)CC2CCOCC2)c1 [N-(3-tert-Butyl-phenyl)-2-methyl-2-(tetrahydro-pyran-4-ylmethanesulfonyl)-propionamide],agonistic activity,14.3,–
CCCS(=O)(=O)C(C)(C)C(=O)Nc1nc(C2CCCCC2)cs1 [N-(4-Cyclohexyl-thiazol-2-yl)-2-methyl-2-(propane-1-sulfonyl)-propionamide],agonistic activity,31.1,–
CC(C)(C(=O)Nc1nc(C2CCCCC2)cs1)S(=O)(=O)CC1CCOCC1 [N-(4-Cyclohexyl-thiazol-2-yl)-2-methyl-2-(tetrahydro-pyran-4-ylmethanesulfonyl)-propionamide],agonistic activity,8.3,–
CC(C)(C(=O)Nc1nc(C2CC2)cs1)S(=O)(=O)CC1CCOCC1 [N-(4-Cyclopropyl-thiazol-2-yl)-2-methyl-2-(tetrahydro-pyran-4-ylmethanesulfonyl)-propionamide],agonistic activity,–,–
CCc1ccnc(NC(=O)C(C)(C)S(=O)(=O)CC2CCOCC2)c1 [N-(4-Ethyl-pyridin-2-yl)-2-methyl-2-(tetrahydro-pyran-4-ylmethanesulfonyl)-propionamide],agonistic activity,–,–
CCCS(=O)(=O)C(C)(C)C(=O)Nc1ccc(C(C)(C)C)cc1 [N-(4-tert-Butyl-phenyl)-2-methyl-2-(propane-1-sulfonyl)-propionamide],agonistic activity,12.3,–
CC(C)S(=O)(=O)C(C)(C)C(=O)Nc1ccc(C(C)(C)C)cc1 [N-(4-tert-Butyl-phenyl)-2-methyl-2-(propane-2-sulfonyl)-propionamide],agonistic activity,–,–
CC(C)(C)c1ccc(NC(=O)C(C)(C)S(=O)(=O)CC2CCOCC2)cc1 [N-(4-tert-Butyl-phenyl)-2-methyl-2-(tetrahydro-pyran-4-ylmethanesulfonyl)-propionamide],agonistic activity,3.3,–
CC(C)(C)c1csc(NC(=O)C(C)(C)S(=O)(=O)Cc2ccc(Cl)cc2)n1 [N-(4-tert-Butyl-thiazol-2-yl)-2-(4-chloro-phenylmethanesulfonyl)-2-methyl-propionamide],agonistic activity,–,–
CC(C)S(=O)(=O)C(C)C(=O)Nc1nc(C(C)(C)C)cs1 (centres unmarked) [N-(4-tert-Butyl-thiazol-2-yl)-2-(propane-2-sulfonyl)-propionamide],agonistic activity,–,–
CC(C)(C)c1csc(NC(=O)C(C)(C)S(=O)(=O)C2CCCC2)n1 [N-(4-tert-Butyl-thiazol-2-yl)-2-cyclopentanesulfonyl-2-methyl-propionamide],agonistic activity,19,–
CC(C)(C)c1csc(NC(=O)C(C)(C)S(C)(=O)=O)n1 [N-(4-tert-Butyl-thiazol-2-yl)-2-methanesulfonyl-2-methyl-propionamide],agonistic activity,–,–
